{"source": "patent US12459951B2", "about": "“Compounds that interact with RAS superfamily proteins for treatment of cancers, inflammatory diseases, rasopathies, and fibrotic disease” (SHY Therapeutics, LLC, priority 2022, dated 2025)", "key": {"[1]": {"system": "Smad2/Smad3 phosphorylation", "experiment": "Phospho-Smad2/3 Inhibition Assay (western blot), Panc-1", "assay_type": "cell-based, human", "settings": "at 10 μM, Panc-1 pancreatic cancer cell line; starred symbols = activation", "in_short": "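Western blotting of lysates (15-50 μg protein) read phosphorylation of Smad2 Ser465/467 and Smad3 Ser423/425. Before lysis, Panc-1 cells got 1 h of 10 ng/ml TGF-b1 following 3 h compound exposure at 37° C (10 μM final, or serial dilutions for IC50, 0.3% DMSO) after overnight 0.5% FBS starvation.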"}, "[2]": {"system": "IL6", "experiment": "IL-6 Quantification Assay (ELISA), LPS-stimulated RAW 264.7", "assay_type": "cell-based", "set-up": "inhibition: dose or concentration left out as unconfirmed", "settings": "Mus musculus, RAW264.7; read-out: IL-6: % inh."}, "[3]": {"system": "Akt phosphorylation", "experiment": "Akt Phosphorylation Assay (western blot), Panc-1", "assay_type": "cell-based, human", "settings": "at 10 μM, * = activation", "in_short": "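Phospho-Akt (Ser473) was measured by western blot in lysates of KRas G12D Panc-1 cells exposed to test compound for 6 h at 37 °C, either at 10 μM final with 0.3% DMSO or as serial dilutions for IC50. One format used overnight 0.5% FBS starvation followed by a 15 min pulse of 1.5 ng/ml EGF. The other used cells in 10% FBS with no stimulation.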"}}, "data": [{"compound": "Cc1c(-c2ccn(C)n2)cn2nc(-c3nccn3C)nc(Nc3ccc(-c4ccccn4)cn3)c12", "note": "[Compound 249, N-([2,3′-Bipyridin]-6′-yl)-5-methyl-2-(1-methyl-1H-imidazol-2-yl)-6-(1-methyl-1H-pyrazol-3-yl)pyrrolo[2,1-f][1,2,4]triazin-4-amine]", "values": [{"measurement": "% inh of Smad2/3 phosphorylation in Panc-1", "setting": "[1]", "result": "0 (0 = 0% inhibition)"}, {"measurement": "inhibition", "setting": "[2]", "result": "75 to 100", "unit": "%"}, {"measurement": "% inh of Akt phosphorylation in Panc-1", "setting": "[3]", "result": "D* (85-100% activation)"}]}, {"compound": "Cc1c(-c2ccn(C)n2)cn2nc(-c3nccn3C)nc(Nc3cc(-c4cccnc4)ccn3)c12", "note": "[Compound 250, N-([3,4′-Bipyridin]-2′-yl)-5-methyl-2-(1-methyl-1H-imidazol-2-yl)-6-(1-methyl-1H-pyrazol-3-yl)pyrrolo[2,1-f][1,2,4]triazin-4-amine]", "values": [{"measurement": "% inh of Smad2/3 phosphorylation in Panc-1", "setting": "[1]", "result": "C* (C* = 46-75% activation)"}, {"measurement": "inhibition", "setting": "[2]", "result": "75 to 100", "unit": "%"}, {"measurement": "% inh of Akt phosphorylation in Panc-1", "setting": "[3]", "result": "D* (85-100% activation)"}]}, {"compound": "COc1cc(Nc2nc(-c3nccn3C)nn3cc(-c4ccn(C)n4)c(C)c23)n[nH]1", "note": "[Compound 252, N-(5-Methoxy-1H-pyrazol-3-yl)-5-methyl-2-(1-methyl-1H-imidazol-2-yl)-6-(1-methyl-1H-pyrazol-3-yl)pyrrolo[2,1-f][1,2,4]triazin-4-amine]", "values": [{"measurement": "% inh of Smad2/3 phosphorylation in Panc-1", "setting": "[1]", "result": "B* (B* = 26-45% activation)"}, {"measurement": "inhibition", "setting": "[2]", "result": "1 to 24", "unit": "%"}, {"measurement": "% inh of Akt phosphorylation in Panc-1", "setting": "[3]", "result": "D* (85-100% activation)"}]}, {"compound": "COc1cc(Nc2nc(-c3nccn3C)nn3cc(-c4ccn(C)n4)c(C)c23)nn1C", "note": "[Compound 253, N-(5-Methoxy-1-methyl-1H-pyrazol-3-yl)-5-methyl-2-(1-methyl-1H-imidazol-2-yl)-6-(1-methyl-1H-pyrazol-3-yl)pyrrolo[2,1-f][1,2,4]triazin-4-amine]", "values": [{"measurement": "% inh of Smad2/3 phosphorylation in Panc-1", "setting": "[1]", "result": "A* (A* = 1-25% activation)"}, {"measurement": "inhibition", "setting": "[2]", "result": "25 to 49", "unit": "%"}, {"measurement": "% inh of Akt phosphorylation in Panc-1", "setting": "[3]", "result": "D* (85-100% activation)"}]}, {"compound": "Cc1c(-c2ccn(C)n2)cn2nc(-c3nccn3C)nc(Nc3cc(OC(F)F)n(C)n3)c12", "note": "[Compound 254, N-(5-(Difluoromethoxy)-1-methyl-1H-pyrazol-3-yl)-5-methyl-2-(1-methyl-1H-imidazol-2-yl)-6-(1-methyl-1H-pyrazol-3-yl)pyrrolo[2,1-f][1,2,4]triazin-4-amine]", "values": [{"measurement": "% inh of Smad2/3 phosphorylation in Panc-1", "setting": "[1]", "result": "B* (B* = 26-45% activation)"}, {"measurement": "inhibition", "setting": "[2]", "result": "25 to 49", "unit": "%"}, {"measurement": "% inh of Akt phosphorylation in Panc-1", "setting": "[3]", "result": "D* (85-100% activation)"}]}, {"compound": "Cc1cc(Nc2nc(-c3nccn3C)nn3cc(-c4ccn(C)n4)c(C)c23)n[nH]1", "note": "[Compound 255, 5-Methyl-2-(1-methyl-1H-imidazol-2-yl)-6-(1-methyl-1H-pyrazol-3-yl)-N-(5-methyl-1H-pyrazol-3-yl)pyrrolo[2,1-f][1,2,4]triazin-4-amine]", "values": [{"measurement": "% inh of Smad2/3 phosphorylation in Panc-1", "setting": "[1]", "result": "D* (D* = 76-100% activation)"}, {"measurement": "inhibition", "setting": "[2]", "result": "50 to 74", "unit": "%"}, {"measurement": "% inh of Akt phosphorylation in Panc-1", "setting": "[3]", "result": "D* (85-100% activation)"}]}, {"compound": "Cc1c(-c2ccn(C)n2)cn2nc(-c3nccn3C)nc(Nc3cc[nH]n3)c12", "note": "[Compound 256, 5-Methyl-2-(1-methyl-1H-imidazol-2-yl)-6-(1-methyl-1H-pyrazol-3-yl)-N-(1H-pyrazol-3-yl)pyrrolo[2,1-f][1,2,4]triazin-4-amine]", "values": [{"measurement": "% inh of Smad2/3 phosphorylation in Panc-1", "setting": "[1]", "result": "D* (D* = 76-100% activation)"}, {"measurement": "inhibition", "setting": "[2]", "result": "50 to 74", "unit": "%"}, {"measurement": "% inh of Akt phosphorylation in Panc-1", "setting": "[3]", "result": "D* (85-100% activation)"}]}, {"compound": "Cc1c(-c2ccn(C)n2)cn2nc(-c3nccn3C)nc(Nc3cc(C4CCC4)[nH]n3)c12", "note": "[Compound 257, N-(5-Cyclobutyl-1H-pyrazol-3-yl)-5-methyl-2-(1-methyl-1H-imidazol-2-yl)-6-(1-methyl-1H-pyrazol-3-yl)pyrrolo[2,1-f][1,2,4]triazin-4-amine]", "values": [{"measurement": "% inh of Smad2/3 phosphorylation in Panc-1", "setting": "[1]", "result": "D* (D* = 76-100% activation)"}, {"measurement": "inhibition", "setting": "[2]", "result": "75 to 100", "unit": "%"}, {"measurement": "% inh of Akt phosphorylation in Panc-1", "setting": "[3]", "result": "D* (85-100% activation)"}]}, {"compound": "Cc1c(-c2ccn(C)n2)cn2nc(-c3nccn3C)nc(Nc3cc(C(F)F)[nH]n3)c12", "note": "[Compound 258, N-(5-(Difluoromethyl)-1H-pyrazol-3-yl)-5-methyl-2-(1-methyl-1H-imidazol-2-yl)-6-(1-methyl-1H-pyrazol-3-yl)pyrrolo[2,1-f][1,2,4]triazin-4-amine]", "values": [{"measurement": "% inh of Smad2/3 phosphorylation in Panc-1", "setting": "[1]", "result": "A* (A* = 1-25% activation)"}, {"measurement": "inhibition", "setting": "[2]", "result": 0, "unit": "%"}, {"measurement": "% inh of Akt phosphorylation in Panc-1", "setting": "[3]", "result": "A (1-25% inhibition)"}]}, {"compound": "Cc1c(-c2ccn(C)n2)cn2nc(-c3nccn3C)nc(Nc3cc(C(F)(F)F)[nH]n3)c12", "note": "[Compound 259, 5-Methyl-2-(1-methyl-1H-imidazol-2-yl)-6-(1-methyl-1H-pyrazol-3-yl)-N-(5-(trifluoromethyl)-1H-pyrazol-3-yl)pyrrolo[2,1-f][1,2,4]triazin-4-amine]", "values": [{"measurement": "% inh of Smad2/3 phosphorylation in Panc-1", "setting": "[1]", "result": "A (A = 1-25% inhibition)"}, {"measurement": "inhibition", "setting": "[2]", "result": "50 to 74", "unit": "%"}, {"measurement": "% inh of Akt phosphorylation in Panc-1", "setting": "[3]", "result": "D* (85-100% activation)"}]}, {"compound": "CCOc1cc(Nc2nc(-c3nccn3C)nn3cc(-c4ccn(C)n4)c(C)c23)n[nH]1", "note": "[Compound 260, N-(5-Ethoxy-1H-pyrazol-3-yl)-5-methyl-2-(1-methyl-1H-imidazol-2-yl)-6-(1-methyl-1H-pyrazol-3-yl)pyrrolo[2,1-f][1,2,4]triazin-4-amine]", "values": [{"measurement": "% inh of Smad2/3 phosphorylation in Panc-1", "setting": "[1]", "result": "A* (A* = 1-25% activation)"}, {"measurement": "inhibition", "setting": "[2]", "result": "75 to 100", "unit": "%"}, {"measurement": "% inh of Akt phosphorylation in Panc-1", "setting": "[3]", "result": "C* (46-84% activation)"}]}, {"compound": "Cc1c(-c2ccn(C)n2)cn2nc(-c3nccn3C)nc(-n3[nH]c(N)cc3=O)c12", "note": "[Compound 261, 5-Amino-2-(5-methyl-2-(1-methyl-1H-imidazol-2-yl)-6-(1-methyl-1H-pyrazol-3-yl)pyrrolo[2,1-f][1,2,4]triazin-4-yl)-1,2-dihydro-3H-pyrazol-3-one]", "values": [{"measurement": "% inh of Smad2/3 phosphorylation in Panc-1", "setting": "[1]", "result": "B* (B* = 26-45% activation)"}, {"measurement": "inhibition", "setting": "[2]", "result": "50 to 74", "unit": "%"}, {"measurement": "% inh of Akt phosphorylation in Panc-1", "setting": "[3]", "result": "B (26-49% inhibition)"}]}, {"compound": "Cc1c(-c2ccn(C)n2)cn2nc(-c3nccn3C)nc(Oc3cc(N)[nH]n3)c12", "note": "[Compound 262, 3-((5-Methyl-2-(1-methyl-1H-imidazol-2-yl)-6-(1-methyl-1H-pyrazol-3-yl)pyrrolo[2,1-f][1,2,4]triazin-4-yl)oxy)-1H-pyrazol-5-amine]", "values": [{"measurement": "% inh of Smad2/3 phosphorylation in Panc-1", "setting": "[1]", "result": "B* (B* = 26-45% activation)"}, {"measurement": "inhibition", "setting": "[2]", "result": "1 to 24", "unit": "%"}, {"measurement": "% inh of Akt phosphorylation in Panc-1", "setting": "[3]", "result": "B (26-49% inhibition)"}]}, {"compound": "Cc1c(-c2ccn(C)n2)cn2nc(-c3nccn3C)nc(Nc3cc(-c4ccccc4)[nH]n3)c12", "note": "[Compound 263, 5-Methyl-2-(1-methyl-1H-imidazol-2-yl)-6-(1-methyl-1H-pyrazol-3-yl)-N-(5-phenyl-1H-pyrazol-3-yl)pyrrolo[2,1-f][1,2,4]triazin-4-amine]", "values": [{"measurement": "% inh of Smad2/3 phosphorylation in Panc-1", "setting": "[1]", "result": "C (C = 46-75% inhibition)"}, {"measurement": "inhibition", "setting": "[2]", "result": "75 to 100", "unit": "%"}, {"measurement": "% inh of Akt phosphorylation in Panc-1", "setting": "[3]", "result": "D* (85-100% activation)"}]}, {"compound": "Cc1c(-c2ccn(C)n2)cn2nc(-c3nccn3C)nc(Nc3cc(-c4cccnc4)[nH]n3)c12", "note": "[Compound 264, 5-Methyl-2-(1-methyl-1H-imidazol-2-yl)-6-(1-methyl-1H-pyrazol-3-yl)-N-(5-(pyridin-3-yl)-1H-pyrazol-3-yl)pyrrolo[2,1-f][1,2,4]triazin-4-amine]", "values": [{"measurement": "% inh of Smad2/3 phosphorylation in Panc-1", "setting": "[1]", "result": "A (A = 1-25% inhibition)"}, {"measurement": "inhibition", "setting": "[2]", "result": "75 to 100", "unit": "%"}, {"measurement": "% inh of Akt phosphorylation in Panc-1", "setting": "[3]", "result": "D* (85-100% activation)"}]}, {"compound": "Cc1c(-c2ccn(C)n2)cn2nc(-c3nccn3C)nc(Nc3cc(-c4ccccn4)[nH]n3)c12", "note": "[Compound 265, 5-Methyl-2-(1-methyl-1H-imidazol-2-yl)-6-(1-methyl-1H-pyrazol-3-yl)-N-(5-(pyridin-2-yl)-1H-pyrazol-3-yl)pyrrolo[2,1-f][1,2,4]triazin-4-amine]", "values": [{"measurement": "% inh of Smad2/3 phosphorylation in Panc-1", "setting": "[1]", "result": "A (A = 1-25% inhibition)"}, {"measurement": "inhibition", "setting": "[2]", "result": "75 to 100", "unit": "%"}, {"measurement": "% inh of Akt phosphorylation in Panc-1", "setting": "[3]", "result": "D* (85-100% activation)"}]}]}
